Here are results for 85 molecules from a melting point compilation (Tetko et al.; mined from patent text by program, amines drawn as free bases though some values may be those of a salt).

Where only a bound is given, the exact number is not on record here.

Turning to `CC(=O)NCCNC(=O)c1ccc(Br)s1`, the melting point fell in the range of 244 to 245 °C.

For the molecule `CCCCc1nc2c(N)nc3ccc(OCC(=O)N4CCOCC4)cc3c2n1C`, the melting point amounted to 257 °C.

Molecule `O=C(C=Cc1ccccc1)CC(=O)c1ccccc1` had a melting point of 108 °C.

`Cc1nn(C)c(N)c1C(=O)Nc1ccccc1F` displayed a melting point of 101 to 103 °C.

On to `CN1CCC(c2c[nH]c3ccc(O[Si](C)(C)C(C)(C)C)cc23)CC1`, for which the melting point lay in the range of 191 to 195 °C.

For `CNCCC(O)(c1ccc(Br)cc1)c1ccccn1` (stereo not given), the melting point lay in the range of 81 to 88 °C.

For `CNC(=O)C(=NOCF)c1ccccc1COc1ccccc1C`, the melting point lay within 86 to 88 °C.

As for `CCCn1ccc2c(c1=O)C(c1cccc(Cl)c1Cl)C(C(=O)OCC)=C(C)N2` (stereo not given), the melting point fell in the range of 264 to 265 °C.

Molecule `COC(=O)NC12CC=CCC1CCc1ccc(OC)cc12` (stereo not given) yielded a melting point of 120 to 122 °C.

Consider `Oc1ncnc2c1cnn2C1OC(COCc2ccccc2)C(OCc2ccccc2)C1OCc1ccccc1` (stereo not given), for which the melting point was 204 °C.

`O=C(c1ccccc1)C(O)C1OC(n2cc(F)c(=O)[nH]c2=O)C(O)(C(=O)c2ccccc2)C1(O)C(=O)c1ccccc1` (stereo not given) yielded a melting point of 210 to 214 °C.

The molecule `C=C(C)C(=O)Nc1nc(CCC)n(Cc2ccc(-c3ccccc3-c3nnn[nH]3)cc2)c1C(=O)OCC` yielded a melting point of 134 to 136 °C.

The molecule `CC(=O)NCc1cc(C(C)(C)C)c(O)c(C(C)(C)C)c1` came in with a melting point of 80 to 84 °C.

On to `O=C1CCC(N2Cc3cc(CNC(=O)Nc4cccc(Oc5ccccn5)c4)ccc3C2=O)C(=O)N1` (stereo not given), for which the melting point lay in the range of 298 to 300 °C.

`Cc1ccc(-n2c(=O)c(O)nc3cccnc32)cc1` returned a melting point of over 300 °C.

`CCON=C(c1ccccc1COc1ccccc1)n1cncn1`: the melting point is 78.5 to 80.5 °C.

On to `Oc1ccc(Nc2nc(NCc3ccco3)nc(Nc3ccc4[nH]ccc4c3)n2)cc1`, for which the melting point was 258 to 260 °C.

Regarding `Cc1ncncc1C(=O)Nc1cnc(-n2nc(C(F)(F)F)cc2C2CC2)nc1`, the melting point lay in the range of 201 to 203 °C.

The molecule `CS(=O)(=O)c1ccc(-c2sc(-c3ccccc3Cl)nc2-c2cccc(F)c2)cc1` showed a melting point of 134 to 135 °C.

Molecule `CCc1ccc2c(c1)C1CN(C(=O)CCC(=O)c3ccc(F)cc3)CCC1N2` (stereo not given) returned a melting point of 120 to 124 °C.

`CCCCc1ncc(CSC(CC(=O)O)C(=O)O)n1Cc1ccc(C(=O)O)cc1` (stereo not given) displayed a melting point of 140 °C.

In turn, `COc1ccc(N(C)c2nccc(-c3cccnc3)n2)cc1` had a melting point of 88 to 90 °C.

In the case of `CNc1cc(-c2c(-c3ccc(F)cc3)ccn2C2CCNCC2)ccn1`, the melting point lay in the range of 165 to 167 °C.

With `Cc1cc(OCc2cn(-c3ccc(C(F)(F)F)cn3)nc2C)ccc1CCC(=O)O`, the melting point lay within 144 to 145 °C.

`CCCCCCCCCCCCCCCCCCSP(=S)(C1CCCCC1)C1CCCCC1` gave a melting point of 67 to 69 °C.

`CCCCc1nc2ccccc2n1Cc1ccc(C(=O)O)cc1` yielded a melting point of 229 to 231 °C.

`CC=NOCc1nc2c(N)nc(C)c(C)c2n1CCCCNC(=O)c1ccccc1` showed a melting point of 192 to 194 °C.

As to `CCOC(=O)c1ncn2c1CN=C(c1ccccn1)c1cc(C#C[Si](C)(C)C)ccc1-2`, the melting point fell in the range of 205 to 206 °C.

For `CCCC(=O)c1cnc2c(OC)csc2c1Nc1ccc(O)cc1C`, the melting point lay in the range of 255 to 257 °C.

`NC(=O)c1cccc(NS(=O)(=O)c2cc(S(=O)(=O)Nc3cccc(C(N)=O)c3)c3cc(O)ccc3c2)c1`: the melting point is 169 to 171 °C.

`O=S(=O)(CCO)c1ccc(S(=O)(=O)CCO)cc1` displayed a melting point of 209 to 212 °C.

Take `CCOC(=O)COc1ccc2c(-c3ccc(Cl)cc3)noc2c1`: the melting point worked out at 97 °C.

For the molecule `CCCCC[C@H]1CC[C@H](c2cnc([C@H]3CC[C@H](C#N)CC3)nc2)CC1`, the melting point came out at 110 °C.

For `CCC1Oc2ccc(CN3CCN(c4ccncc4)CC3)cc2NC1=O` (stereo not given), the melting point was 113 to 128 °C.

As to `CCCc1c(OCC(O)COc2ccc(C(=O)O)cc2Cl)ccc(C(C)=O)c1O` (stereo not given), the melting point was 100 to 103 °C.

Turning to `CN(CCc1c[nH]c2ccc(NC(N)=O)cc12)C(=O)C(F)(F)F`, the melting point is 193 to 194 °C.

`CC1(C)NC(=O)N(c2ccc(I)c(C(F)(F)F)c2)C1=O` registered a melting point of 164 to 165 °C.

In the case of `CCCCCCCCCCSCCCCCCCCCCNC(=O)OCCN1CCOCC1`, the melting point turned out to be 91 °C.

`CC(=O)OC(C)c1ncnc(Cl)c1I` (stereo not given) returned a melting point of 55 to 58 °C.

For `N#Cc1cccc(C2=Nc3ccc(-c4cc(F)ccc4F)cc3NC(=O)C2)c1`, the melting point was found to be 247 °C.

`CCCCOCCCOCCCCCCNCC(O)c1cc(Cl)c(N)c(Cl)c1` (stereo not given) registered a melting point of 49 to 51 °C.

`CCN(CC)CCN1C(=O)c2ccc(NC(C)=O)cc2Oc2cc(C(F)(F)F)ccc21` came in with a melting point of 75 to 85 °C.

`O=c1c(-c2n[nH]c3ccccc23)coc2ccccc12` yielded a melting point of 159 to 160 °C.

In turn, `CC(CN1CCOCC1)C(=O)c1ccc(C(C)(C)C)cc1` (stereo not given) came in with a melting point of 71 to 73 °C.

`COC(=O)c1ccc(Oc2ccc([N+](=O)[O-])cc2C(=O)OC)cc1` had a melting point of 103 to 105 °C.

In the case of `Cc1cc(-n2ccnc2)c2cccc(OCc3c(Cl)ccc(S(=O)(=O)N4CCC[C@H]4C(=O)NCC4CCN(C(=O)c5ccccc5)CC4)c3Cl)c2n1`, the melting point is 102 °C.

As to `CCCCc1cc(Br)c(N=Nc2ccc(N(CCO)CCO)cc2NC(C)=O)c(Br)c1`, the melting point is 157 to 159 °C.

In turn, `COc1cc(OC)nc(NC(=O)NS(=O)(=O)c2c([Si](C)(C)C)ccc3c2S(=O)(=O)C(C)C3)n1` (stereo not given) registered a melting point of 188 to 190 °C.

`Cc1cccc(C)c1NC(=O)C=CC(=O)c1ccc(Cl)c(Cl)c1` displayed a melting point of 213 to 215 °C.

Molecule `O=c1[nH]c2ncc(-c3cnc4[nH]cnc4c3)nc2n1CC1CCOCC1` registered a melting point of 367 to 370 °C.

In turn, `Clc1ccc(-c2ccc(Cl)nc2)cc1` showed a melting point of 113 to 115 °C.

The molecule `CC(C)NC(=O)C1c2cc(NC(=O)c3cc(C(F)(F)F)nn3-c3ncccc3Cl)c(Cl)cc2CC1F` (stereo not given) displayed a melting point of 98 to 99 °C.

Regarding `CCCCn1nnc2cc(C(O)c3ccsc3)ccc21` (stereo not given), the melting point stood at 80 °C.

In turn, `O=C(CC(NC(=O)c1ccccc1)c1ccccc1)Nc1n[nH]c(=S)s1` (stereo not given) showed a melting point of 266 to 267 °C.

`CCC(CCCc1cccnc1)NC(=O)C(O)c1ccccc1` (stereo not given) showed a melting point of 122 to 124 °C.

`CCCCc1oc2ccccc2c1-c1ncc(-c2ccc3cc(OCC(=O)OC)ccc3c2)o1`: the melting point fell in the range of 149 to 151 °C.

`Cn1c(CNCC(C)(C)O)cc2cc(NC(=O)c3ccc(OC[C@@H]4CCCO4)cc3F)ccc21` yielded a melting point of 159 to 160 °C.

In the case of `O=C(CCCCC(=O)Oc1ccc(N=Nc2ccccc2)cc1)Oc1ccc(N=Nc2ccccc2)cc1`, the melting point fell in the range of 176 to 177 °C.

The molecule `CCCc1c(OCCCC(=O)NCCCCCCc2cccnc2)ccc(C(C)=O)c1O` registered a melting point of 69 to 71 °C.

Turning to `CCCCc1nc2cccc(C(=O)O)c2n1Cc1ccc(-c2cncnc2-c2nnn[nH]2)cc1`, the melting point lay in the range of 209 to 212 °C.

The molecule `COC=C(C(=O)OC)N(C)c1ncnc(-c2ccccc2)n1` had a melting point of 98 to 101 °C.

Molecule `OCCc1nccn1CCCc1ccc(OCc2coc(/C=C/c3ccc(F)cc3F)n2)cc1` came in with a melting point of 94 to 96 °C.

The molecule `O=C(Nc1c[nH]nc1C(=O)NCCC(F)(F)F)c1ccccn1` had a melting point of 241 to 243 °C.

In turn, `Cc1cc(-c2c(-c3ccc(S(C)(=O)=O)cc3)cnn(CC(F)(F)F)c2=O)ccc1F` had a melting point of 88 to 91 °C.

With `COC(=O)C(O)C(NCc1ccccc1)c1ccc([N+](=O)[O-])cc1` (stereo not given), the melting point was in the range of 147 to 149 °C.

In the case of `CC(=O)OC1CCC2(C)C(=CCC3C4CC(OC(C)=O)C(=O)C4(C)CCC32)C1` (stereo not given), the melting point is 173 to 174 °C.

The molecule `COC(=O)COc1cccc2c(CCN=[N+]=[N-])c(C)oc12` had a melting point of 88 to 90 °C.

`COc1cc(CO)c(-c2cccc(OCCC(C)CCCC(C)C)c2)cc1CO` (stereo not given) displayed a melting point of 55 °C.

The molecule `CC12CCC3c4cc(OCC(F)(F)F)c(O)cc4CCC3C1CCC2O` (stereo not given) displayed a melting point of 167 to 168 °C.

`COc1c(NC(=O)Nc2ccc(-c3ccc(CN4CCOCC4)nc3)c3ccccc23)cc(C(C)(C)C)cc1NS(=O)(=O)c1ccccc1` registered a melting point of 206 to 207 °C.

Regarding `CC(=O)c1ccc(-n2c(-c3cc(-c4ccccc4)c(N4CCOCC4)s3)nc3ccccc3c2=O)cc1`, the melting point was over 275 °C.

`S=C(NCc1ccc2c(c1)OCO2)N1CCc2c([nH]c3ccccc23)C1c1ccc2c(c1)OCO2` (stereo not given) registered a melting point of 97 to 100 °C.

Regarding `CCCCOc1ccc(CCCOc2c(CC(=O)O)cccc2OC)c(Oc2ccc(C(F)(F)F)cn2)c1`, the melting point lay in the range of 69 to 70 °C.

In turn, `C#CC(=O)NCCCCC` registered a melting point of 59 to 60.2 °C.

Consider `O=C1NCCc2c1c1cccc3c1n2CCC3`, for which the melting point lay within 254 to 256 °C.

In the case of `Nc1cccc(-c2ccnc3c(Br)cnn23)c1`, the melting point lay within 120 to 121 °C.

Turning to `COCC(C1CC1)n1cc(Cl)nc(Nc2cc(C)c(OC(F)F)nc2C)c1=O` (stereo not given), the melting point was in the range of 103 to 104 °C.

In the case of `CC1(C)CCC(C)(C)c2cc(-c3cc(-c4ccc(C(=O)O)cc4)ccc3-c3ccccc3)c(O)cc21`, the melting point was determined as 145 °C.

`CCCc1ccc2oc(Cc3ccc(O)cc3)c(C)c2c1O`: the melting point lay in the range of 117 to 120 °C.

Molecule `O=C1N=C(N2CCCCCC2)SC1=Cc1cccc(-c2ccc(O)c(C34CC5CC(CC(C5)C3)C4)c2)c1` returned a melting point of 321 to 324 °C.

`NC1=NC(c2ccc(OC(F)(F)F)cc2)(c2cccc(-c3cccnc3F)c2)C2=NCCCCN12` (stereo not given): the melting point lay in the range of 88 to 97 °C.

`Clc1ccc(O[C@@H]2CCNC[C@H]2c2ccccc2)cc1` (relative stereo) registered a melting point of 102 to 103 °C.

The molecule `CCOc1ccc(-c2ccc(Cl)nn2)c(OCC(O)CNC(C)(C)C)c1` (stereo not given) gave a melting point of 115 to 117 °C.

Turning to `COc1cc(C(=O)O)c(Br)cc1C(=O)O`, the melting point is 275 °C.

In the case of `Nc1ccccc1OCCCN1CCC(OC(c2ccccc2)c2ccccc2)CC1`, the melting point lay in the range of 86 to 88 °C.
